Experimental data reported in patent US20010001713A1, “Composition and method for measuring the foliar uptake of agrochemicals” (priority 1999, published 2001).
Read-outs that look alike come from different tables or passages of the source.

Legend:
cucumber leaves [1] = conditions: Baktadagi, in vivo, 0 h
Method: (§1) (Step 1) Preparation of a solution containing agrochemicals and Congo Red
(§2) Since dimethomorph is not readily absorbed by the plant, 0.1% of stearylamine ethoxylate(SN, moles of ethylene oxide added: 10) was added as an adjuvant to enhance its foliar uptake.
(§3) Cucumber seeds(Baktadagi, Hung Nong Seed Co., Ltd., Korea) were sowed in disposable resin cup pots (id 47 mm×50 mm) at a density of three seeds per pot and cultivated in a greenhouse. Upon the complete development of cotyledons, the cucumber plants were each transplanted to a disposable resin cup pot(id 66 mm×h 66 mm) and cultivated in a greenhouse until the development of 4 to 5 leaves.
(§4) 18 pots of cucumber plants thus prepared were put in a spray booth and sprayed with the agrochemical solution prepared in (Step 1) in an amount of 80 l/ha. Further, 15 glass plates(10 cm×10 cm) were also sprayed with the same agrochemical solution prepared in (Step 1) in an amount of 80 l /ha.
(§5) Immediately after the spraying in (Step 2) , one leaf with its petiole attached was cut off from each of three cucumber plants, put in a test tube containing the appropriate washing solution and washed by agitating the tube with bottom-side up at 60 to 70 rpm for 2 minutes to obtain three wash extracts. Three glass plates were subjected to the same washing procedure in a petri dish(id 15.2 cm) to obtain three control wash extracts.
(§6) The remaining 15 cucumber plants and 12 glass plates were stored in the dark at room temperature, and the same washing procedure as above was repeated at 1 hour, 3 hours, 6 hours, 12 hours and 24 hours after the spraying.
(§7) The concentrations of the agrochemicals in the wash extracts were measured by HPLC(Spectra 200 Programmable Wavelength Detector, acetonitrile-water solvent programming, 42%-80%). The wash extracts obtained immediately after the spraying were used as standard solutions, and Congo Red, as an internal standard.

[2] = Glass plate control run of Example 3 (loss of dimethomorph other than by plant uptake); conditions: 24 hours after spraying, stored in the dark at room temperature
From the text: The use of a control plate serves the purpose of determining the loss of agrochemical due to reasons other than plant uptake.
(§8) Forum wettable powder(a 25% dimethomorph formulation, Dongbang Agro Co., Ltd., Korea) was dispersed in water and added thereto were one of the penetrant candidate materials listed in Table 4 and Congo Red to obtain an agrochemical solution containing dimethomorph, a penetrant candidate and Congo Red at concentrations of 250 ppm, 1,000 ppm and 200 ppm, respectively. A control containing no penetrant was also prepared.
The agrochemical solution and control thus prepared were sprayed on leaves of each of six cucumber plants having 4 to 5 leaves, as well as on six glass plates(10 cm×10 cm). Immediately after the spraying, the sprayed cucumber leaves from 3 cucumber plants and three glass plates were washed with 12 ml portion of 30% acetonitrile-aqueous solution for 3 minutes to obtain standard wash extracts and controls. […]
The concentrations of dimethomorph and Congo Red in the wash extracts were measured by HPLC(Spectra 200 Programmable Wavelength Detector, acetonitrile-water solvent programming, 42%-80%) . […] The foliar uptake rate of dimethomorph was calculated by comparing the concentrations of dimethomorph and Congo Red in the wash extracts obtained immediately after the spraying and at 24 hours after the spraying.

rice plants [3] = conditions: in vivo; for Time-dependent Uptake by Rice(%) (Mean ± S.D.(n = 3)) I.A. / Time-dependent Uptake by Rice(%) (Mean ± S.D.(n = 3)) after 1 hr / Time-dependent Uptake by Rice(%) (Mean ± S.D.(n = 3)) after 3 hrs / Time-dependent Uptake by Rice(%) (Mean ± S.D.(n = 3)) after 6 hrs / Time-dependent Uptake by Rice(%) (Mean ± S.D.(n = 3)) after 12 hrs / Time-dependent Uptake by Rice(%) (Mean ± S.D.(n = 3)) after 24 hrs: Dongjin byeo
cucumber leaves [4] = assay: Foliar uptake of agrochemicals by cucumber plants (Congo Red tracer method); conditions: for Time-dependent Uptake by Cucumber(%) (Mean ± S.D.(n = 3)) after 24 hrs: 24 hrs after spraying
Method: as §1, §2, §3, §4, §5, §6, §7

rice plants [5] = conditions: in vivo
cucumber leaves [6] = assay: Selection of a penetrant for the absorption of dimethomorph by cucumber leaves; conditions: 24 hours after spraying, dimethomorph 250 ppm (Forum wettable powder) + penetrant 1,000 ppm
Method: as §8
The agrochemical solution and control thus prepared were sprayed on leaves of each of six cucumber plants having 4 to 5 leaves, as well as on six glass plates(10 cm×10 cm). Immediately after the spraying, the sprayed cucumber leaves from 3 cucumber plants and three glass plates were washed with 12 ml portion of 30% acetonitrile-aqueous solution for 3 minutes to obtain standard wash extracts and controls.
The remaining three cucumber pots and three glass plates were stored in the dark at room temperature, and the same procedure was repeated at 24 hours after the spraying.
The concentrations of dimethomorph and Congo Red in the wash extracts were measured by HPLC(Spectra 200 Programmable Wavelength Detector, acetonitrile-water solvent programming, 42%-80%) . The wash extracts obtained immediately after the spraying were used as standard solutions, and Congo Red, as an internal standard. The foliar uptake rate of dimethomorph was calculated by comparing the concentrations of dimethomorph and Congo Red in the wash extracts obtained immediately after the spraying and at 24 hours after the spraying.

COc1ccc(C(=CC(=O)N2CCOCC2)c2ccc(Cl)cc2)cc1OC [Dimethomorph, dimethomorph]
Time-dependent Uptake by Cucumber(%) (Mean ± S.D.(n = 3)) I.A. (cucumber leaves [1]): 0 ± 0.7% | Uptake (%) of dimethomorph [2]: 0.0%

CCOP(=O)(Sc1ccccc1)Sc1ccccc1 [Edifenphos, edifenphos]
Time-dependent Uptake by Rice(%) (Mean ± S.D.(n = 3)) I.A. (rice plants [3]): 0 ± 1.3% | Time-dependent Uptake by Rice(%) (Mean ± S.D.(n = 3)) after 1 hr (rice plants [3]): 1.5 ± 1.1% | Time-dependent Uptake by Rice(%) (Mean ± S.D.(n = 3)) after 3 hrs (rice plants [3]): 4.9 ± 0.7% | Time-dependent Uptake by Rice(%) (Mean ± S.D.(n = 3)) after 6 hrs (rice plants [3]): 7.8 ± 0.4% | Time-dependent Uptake by Rice(%) (Mean ± S.D.(n = 3)) after 12 hrs (rice plants [3]): 14.5 ± 1.3% | Time-dependent Uptake by Rice(%) (Mean ± S.D.(n = 3)) after 24 hrs (rice plants [3]): 29.8 ± 1.9% | absorption by the rice plants (in words) (rice plants [3]): absorbed by the rice plants at a steady rate

OC(c1ccc(Cl)cc1)(c1cncnc1)c1ccccc1Cl (stereo not shown) [Fenarimol, fenarimol]
Time-dependent Uptake by Cucumber(%) (Mean ± S.D.(n = 3)) after 1 hr (cucumber leaves [4]; 1 hr after spraying, stored in the dark, dimethomorph with 0.1% stearylamine ethoxylate): 2.0 ± 8.1% | Time-dependent Uptake by Cucumber(%) (Mean ± S.D.(n = 3)) after 3 hrs (cucumber leaves [4]; 3 hrs after spraying, stored in the dark, dimethomorph with 0.1% stearylamine ethoxylate): 3.2 ± 1.8% | Time-dependent Uptake by Cucumber(%) (Mean ± S.D.(n = 3)) after 6 hrs (cucumber leaves [4]; 6 hrs after spraying, stored in the dark, dimethomorph with 0.1% stearylamine ethoxylate): 5.2 ± 2.5% | Time-dependent Uptake by Cucumber(%) (Mean ± S.D.(n = 3)) after 12 hrs (cucumber leaves [4]; 12 hrs after spraying, stored in the dark, dimethomorph with 0.1% stearylamine ethoxylate): 8.0 ± 4.1% | Time-dependent Uptake by Cucumber(%) (Mean ± S.D.(n = 3)) after 24 hrs (cucumber leaves [4]; stored in the dark, dimethomorph with 0.1% stearylamine ethoxylate): 15.1 ± 4.0% | Time-dependent Uptake by Cucumber(%) (Mean ± S.D.(n = 3)) after 24 hrs (cucumber leaves [4]; stored in the dark, dimethomorph with 0.1% stearylamine ethoxylate, listed as fenarimol): 15.1% | Time-dependent Uptake by Cucumber(%) (Mean ± S.D.(n = 3)) I.A. (cucumber leaves [4]; immediately after the spraying, 80 l/ha, dimethomorph solution with 0.1% stearylamine ethoxylate): 0 ± 3.1%

CC(C)OC(=O)C(C(=O)OC(C)C)=C1SCCS1 [Isoprothiolane, isoprothiolane]
Time-dependent Uptake by Rice(%) (Mean ± S.D.(n = 3)) I.A. (rice plants [3]): 0 ± 1.0% | Time-dependent Uptake by Rice(%) (Mean ± S.D.(n = 3)) after 1 hr (rice plants [3]): 7.9 ± 1.9% | Time-dependent Uptake by Rice(%) (Mean ± S.D.(n = 3)) after 3 hrs (rice plants [3]): 11.6 ± 1.2% | Time-dependent Uptake by Rice(%) (Mean ± S.D.(n = 3)) after 6 hrs (rice plants [3]): 16.1 ± 1.3% | Time-dependent Uptake by Rice(%) (Mean ± S.D.(n = 3)) after 12 hrs (rice plants [3]): 27.8 ± 1.1% | Time-dependent Uptake by Rice(%) (Mean ± S.D.(n = 3)) after 24 hrs (rice plants [3]): 47.1 ± 2.5% | absorption by the rice plants (in words) (rice plants [3]): absorbed by the rice plants at a steady rate

CC12CC1(C)C(=O)N(c1cc(Cl)cc(Cl)c1)C2=O (stereo not shown) [Procymidone, procymidone]
Time-dependent Uptake by Cucumber(%) (Mean ± S.D.(n = 3)) I.A. (cucumber leaves [1]): 0 ± 0.8%

Cc1cccc2sc3nncn3c12 [Tricyclazole, tricyclazole]
Recovery (%) of tricyclazole (rice plants [5]; rice): 82.4% | Uptake (%) of tricyclazole (rice plants [5]; rice): 17.6% | Time-dependent Uptake by Rice(%) (Mean ± S.D.(n = 3)) I.A. (rice plants [3]): 0 ± 1.1% | Time-dependent Uptake by Rice(%) (Mean ± S.D.(n = 3)) after 1 hr (rice plants [3]): 1.4 ± 0.7% | Time-dependent Uptake by Rice(%) (Mean ± S.D.(n = 3)) after 3 hrs (rice plants [3]): 1.1 ± 1.5% | Time-dependent Uptake by Rice(%) (Mean ± S.D.(n = 3)) after 6 hrs (rice plants [3]): 2.0 ± 1.4% | Time-dependent Uptake by Rice(%) (Mean ± S.D.(n = 3)) after 12 hrs (rice plants [3]): 4.1 ± 0.5% | Time-dependent Uptake by Rice(%) (Mean ± S.D.(n = 3)) after 24 hrs (rice plants [3]): 11.0 ± 0.9% | absorption by the rice plants (in words) (rice plants [3]): absorbed by the rice plants at a steady rate

CCCCC(CC)COC(=O)CC(C(=O)OCC(CC)CCCC)S(=O)(=O)[O-].[Na+] (stereo not shown) [sodium dioctylsulfosuccinate]
Recovery (%) of tricyclazole (rice plants [5]): 79.1% | Uptake (%) of tricyclazole (rice plants [5]): 20.9% | Recovery (%) of dimethomorph (cucumber leaves [6]): 94.5% | Uptake (%) of dimethomorph (cucumber leaves [6]): 5.5%

castor oil ethoxylate [castor oil ethoxylate(17)]
Recovery (%) of tricyclazole (rice plants [5]): 63.7% | Uptake (%) of tricyclazole (rice plants [5]): 36.3%

laurylamine ethoxylate [laurylamine ethoxylate(7)]
Recovery (%) of tricyclazole (rice plants [5]): 35.4% | Uptake (%) of tricyclazole (rice plants [5]): 64.6% | Recovery (%) of dimethomorph (cucumber leaves [6]): 96.3% | Uptake (%) of dimethomorph (cucumber leaves [6]): 3.7%

nonylphenol ethoxylate [nonylphenol ethoxylate(10)]
Recovery (%) of tricyclazole (rice plants [5]): 80.6% | Uptake (%) of tricyclazole (rice plants [5]): 19.4% | Recovery (%) of dimethomorph (cucumber leaves [6]): 99.8% | Uptake (%) of dimethomorph (cucumber leaves [6]): 0.2%

stearylamine ethoxylate [stearylamine ethoxylate(10)]
Recovery (%) of tricyclazole (rice plants [5]): 46.1% | Uptake (%) of tricyclazole (rice plants [5]): 53.9% | Recovery (%) of dimethomorph (cucumber leaves [6]): 85.5% | Uptake (%) of dimethomorph (cucumber leaves [6]): 14.5%

tridecyl alcohol ethoxylate [tridecyl alcohol ethoxylate(5)]
Recovery (%) of tricyclazole (rice plants [5]): 75.6% | Uptake (%) of tricyclazole (rice plants [5]): 24.4% | Recovery (%) of dimethomorph (cucumber leaves [6]): 98.0% | Uptake (%) of dimethomorph (cucumber leaves [6]): 2.0%
